Results as given in patent US7557107B2, “Farnesyl protein transferase inhibitors as antitumor agents” (Schering Coporation, priority 2003, dated 2009).
Several values for one entry are separate records, joined by “and”; a condition that tells them apart may be missing. Identical values can stand only once.

Legend:
[1] = biological target: purified human farnesyl protein transferase (Homo sapiens, UniProt P49354+P49356); experiment: FPT activity: transfer of [3H] farnesyl from [3H] farnesyl pyrophosphate to biotinylated H-ras peptide (SPA); assay type: biochemical; settings: 0.03 nM enzyme, 37° C., 60 minutes
Protocol: FPT activity was determined by measuring the transfer of [^3H] farnesyl from [^3H] farnesyl pyrophosphate to a biotinylated peptide derived from the C-terminus of H-ras (biotin-CVLS). The reaction mixture contains: 50 mM Tris pH7.7, 5 mM MgCl2, 5 μM Zn^++, 5 mM DTT, 0.1% Triton-X, 0.05 μM peptide, 0.03 nM purified human farnesyl protein transferase, 0.180 μM [^3H] farnesyl pyrophosphate, plus the indicated concentration of tricyclic compound or vehicle control in a total volume of 100 μl. The reaction was incubated in a yortemp shaking incubator at 37° C., 45 RPM for 60 minutes and stopped with 150 μl of 0.25 M EDTA containing 0.5% BSA and 1.3 mg/ml Streptavidin SPA beads. Radioactivity was measured in a Wallach 1450 Microbeta liquid scintillation counter. Percent inhibition was calculated relative to the vehicle control.

[2] = tested on: Human tumor cells; experiment: Soft Agar Assay (anchorage-independent growth); assay type: cell-based; settings: colony outgrowth 10-16 days, MTT stain
Protocol: Anchorage-independent growth is a characteristic of tumorigenic cell lines. Human tumor cells can be suspended in growth medium containing 0.3% agarose and an indicated concentration of a famesyl transferase inhibitor. The solution can be overlayed onto growth medium solidified with 0.6% agarose containing the same concentration of farnesyl transferase inhibitor as the top layer. After the top layer is solidified, plates can be incubated for 10-16 days at 37° C. under 5% CO2 to allow colony outgrowth. After incubation, the colonies can be stained by overlaying the agar with a solution of MTT (3-[4,5-dimethyl-thiazol-2-yl]-2,5-diphenyltetrazolium bromide, Thiazolyl blue) (1 mg/mL in PBS). Colonies can be counted and the IC50's can be determined.

Compound | IC50 [1] | IC50 [2] [pM]
Cn1cncc1[C@H](NC(=O)OC1(C)CC1)C1=Cc2cccnc2[C@@H](N2CCN(C(=O)OC3(C)CC3)CC2)c2ccc(Cl)cc21 [Compound 108.1] | 500 to 5000 pM and 1500 pM | < 500
Cn1cncc1[C@H](NC(=O)OC1(C2CC2)CC1)C1=Cc2cccnc2[C@@H](N2CCN(C(=O)OC3CCCC3)CC2)c2ccc(Cl)cc21 [Compound 112.1, 4-{6-[(Bicyclopropyl-1-yloxycarbonylamino)-(3-methyl-3H-imidazol-4-yl)-methyl]-8-chloro-11H-benzo[5,6]cyclohepta[1,2-b]pyridin-11-yl}-piperazine-1-carboxylic acid cyclopentyl ester] | 500 to 5000 pM | –
COCC(=O)N[C@H](C1=Cc2cccnc2[C@@H](N2CCN(C(=O)OC(C)C)CC2)c2ccc(Cl)cc21)c1cncn1C [Compound 136.1] | 500 to 5000 pM and 600 pM | 600
COC1(C(=O)N[C@H](C2=Cc3cccnc3[C@@H](N3CCN(C(=O)OCC(C)(C)C)CC3)c3ccc(Cl)cc32)c2cncn2C)CC1 [Compound 119.1] | 500 to 5000 pM | –

The next lines start with the values.

IC50 [1] | IC50 [2] [pM] | Compound
500 to 5000 pM | – | COC1(C(=O)N[C@H](C2=Cc3cccnc3[C@@H](N3CCN(C(=O)OCC4(C)CC4)CC3)c3ccc(Cl)cc32)c2cncn2C)CC1 [Compound 120.1]
500 to 5000 pM | – | CC(C)C1(OC(=O)N2CCN([C@H]3c4ccc(Cl)cc4C([C@@H](NC(=O)OC4(C)CC4)c4cncn4C)=Cc4cccnc43)CC2)CC1 [Compound 118.1]
500 to 5000 pM | – | COC1(C(=O)N[C@H](C2=Cc3cccnc3[C@@H](N3CCN(C(=O)OC(C)C)CC3)c3ccc(Cl)cc32)c2cncn2C)CC1 [Compound 152.1, 4-{8-Chloro-6-[[(1-methoxy-cyclopropanecarbonyl)-amino]-(3-methyl-3H-imidazol-4-yl)-methyl]-11H-benzo[5.6]cyclohepta[1,2-b]pyridin-11-yl}-piperazine-1-carboxylic acid isopropyl ester]
